Article PMC12475274, “Harnessing indole scaffolds to identify small-molecule IRE1α inhibitors modulating XBP1 mRNA splicing” (Nature Communications, 2025)
Values joined by “and” are separate entries in the source; they are usually repeats but may differ in a detail not shown here. Equal values may be shown once. “Also recorded” adds a separate entry of the source.

Tests used:
phosphorylated IRE1α = target: T1, phosphorylated IRE1α (Homo sapiens, UniProt O75460); test: Microscale thermophoresis (MST), p-IRE1α; format: binding
T1 construct: Human IRE1α kinase and RNase domain (residues 547–977) was subcloned into pLIB plasmid; His tag (with TEV cleavage site) (N, cleaved yes); made in house; host or cells: Sf9 insect cells, baculovirus (Bac-to-Bac)
Description: Dephosphorylated IRE1α protein and phosphorylated IRE1α protein were labeled and purified using Protein Labeling Kit RED-NHS 2nd Generation (NanoTemper, MO-L011), following the manufacturer’s protocol. The labeling buffer contained 50 mM HEPES, pH 7.5, 200 mM NaCl, 2% glycerol, 0.5 mM TCEP, 0.05% tween20. MST experiments were performed using the Monolith Nt.115 instrument (NanoTemper), and binding experiments were conducted according to the instrument’s instructions. Compounds were serially diluted 2-fold and incubated with labeled IRE1α protein at a final concentration of 20 nM. The highest compound concentration measured was 250 μM with a final DMSO concentration of 2.5%. Measurements were carried out using the red detector with 60% excitation power. Data were analyzed using the manufacturer’s software, and results from three individual measurements were merged for analysis.

BMPR2 = BMPR2 (Homo sapiens, UniProt Q13873); test: Kinase profiling (SelectScreen), LanthaScreen Binding; settings: IA107 at 5 μM
Description: (§1) Kinase profiling was conducted by the SelectScreen Kinase Profiling Services (Thermo Fisher), using Z′-LYTE, Adapta, or LanthaScreen Eu Kinase Binding Assay for different kinases. The kinome phylogenetic tree was generated using the KinMap web portal.

CASK = CASK (Homo sapiens, UniProt O14936); test: as above; settings: IA107 at 5 μM
Description: as §1

IRE1β (ERN2) = IRE1β (ERN2) (Homo sapiens, UniProt Q76MJ5); test: LanthaScreen Eu kinase binding assay, IRE1β
Description: LanthaScreen^TM Eu kinase binding assays were conducted by SelectScreen Kinase Profiling Services (Thermo Fisher) using Alexa Fluor conjugated kinase tracer, tagged kinase protein, and Eu-labeled anti-tag antibody. The binding of the tracer to the kinase will form the tracer-kinase complex, resulting in a high FRET signal with the Eu-labeled anti-tag antibody. Displacement of the tracer by a kinase inhibitor led to a decreased FRET signal. […] Buffer A containing 50 mM HEPES pH 7.5, 0.01% BRIJ-35, 10 mM MgCl2, and 1 mM EGTA was used.
as §1

IRE1α in A549 cells = target: T2, IRE1α in A549 cells (Homo sapiens, UniProt O75460); test: Cellular thermal shift assay (CETSA) in A549 cells; format: cell-based
T2 construct: endogenous in cells; host or cells: A549 cells
Description: A549 cells were harvested and seeded into 100 mm standard cell culture dishes at 80% confluency and cultured overnight. For the IA107 experiment, cells were gently washed with pre-cooled DPBS (Gibco,14190169) and lysed in RIPA buffer (Sigma, R0278) supplemented with phosphatase inhibitor (Roch, 4906845001) and 1× protease inhibitor cocktail (Sigma, P8340) for 30 min on ice. Cell lysates were centrifuged at 18,000 × g for 30 min at 4 °C and the supernatants were collected. The lysates were collected together and then aliquoted into 550 μL, the aliquots were incubated with different concentrations of IA107 with a final concentration of 0.1% DMSO for 30 min at room temperature. […]
For the IAPD1 experiment, A549 cells were treated with different concentrations of IAPD1 or DMSO for 4 h (final 0.1% DMSO). […] Lysates were collected by scraping and centrifuged at 18,000 × g for 30 min at 4 °C, and the protein concentrations of the supernatants were quantified using a BCA protein assay kit (Thermo Scientific, 23227) and diluted to 4 μg/μL, then cell lysate was aliquoted into 10 PCR tubes, with 50 μL of lysate per tube. […] After heating, samples were centrifuged at 18,000 × g for 30 min at 4 °C, and supernatants were collected and analyzed by western blot using the method and antibodies aforementioned.

[1] = tested on: XBP1 mRNA splicing in HCT 116 cells; test: RT-qPCR of ER stress-induced XBP1 mRNA splicing, HCT 116; format: cell-based, human; settings: HCT 116 cells
Description: A549 cells, HCT 116 cells, and HT-29 cells were collected and seeded in 6-well plates at a density of 5 × 10^5 cells per well and cultured overnight to attach, then treated with compound or DMSO for 2 h, then 0.5 μg/mL final concentration of tunicamycin (Tm, MP Biomedi, 0215002805) were added to induce the ER stress for 2 h. After treatment, total RNA was purified using an RNeasy mini kit (Qiagen, 74106). 500 ng of total RNA was used for reverse transcription using the High-Capacity cDNA Reverse Transcription Kits (Thermo Fisher, 4368814). cDNA was diluted 1: 5 using RNase-free water, and 1 μL CDNA was used for each qPCR reaction. The qPCR was performed using PowerUp™ SYBR™ Green Master Mix (Thermo Fisher, A25742) with 10 µL reaction volume using Bio-Rad CFX96 Real-Time PCR Detection System following the standard cycling mode (primer Tm ≥ 60 °C) on the manufacturer’s protocol. Data was analyzed using the 2^- ΔΔCt method. The primers used are listed in Supplementary Table S3. The inhibition % was calculated by using the equation: inhibition% = 100× (normalized Tm control - normalized of the sample)/(normalized Tm control - normalized DMSO control). Tm control: Cells treated with tunicamycin; DMSO control: Cells treated with DMSO only.

Sequence of IRE1β (ERN2) (Q76MJ5 35-926): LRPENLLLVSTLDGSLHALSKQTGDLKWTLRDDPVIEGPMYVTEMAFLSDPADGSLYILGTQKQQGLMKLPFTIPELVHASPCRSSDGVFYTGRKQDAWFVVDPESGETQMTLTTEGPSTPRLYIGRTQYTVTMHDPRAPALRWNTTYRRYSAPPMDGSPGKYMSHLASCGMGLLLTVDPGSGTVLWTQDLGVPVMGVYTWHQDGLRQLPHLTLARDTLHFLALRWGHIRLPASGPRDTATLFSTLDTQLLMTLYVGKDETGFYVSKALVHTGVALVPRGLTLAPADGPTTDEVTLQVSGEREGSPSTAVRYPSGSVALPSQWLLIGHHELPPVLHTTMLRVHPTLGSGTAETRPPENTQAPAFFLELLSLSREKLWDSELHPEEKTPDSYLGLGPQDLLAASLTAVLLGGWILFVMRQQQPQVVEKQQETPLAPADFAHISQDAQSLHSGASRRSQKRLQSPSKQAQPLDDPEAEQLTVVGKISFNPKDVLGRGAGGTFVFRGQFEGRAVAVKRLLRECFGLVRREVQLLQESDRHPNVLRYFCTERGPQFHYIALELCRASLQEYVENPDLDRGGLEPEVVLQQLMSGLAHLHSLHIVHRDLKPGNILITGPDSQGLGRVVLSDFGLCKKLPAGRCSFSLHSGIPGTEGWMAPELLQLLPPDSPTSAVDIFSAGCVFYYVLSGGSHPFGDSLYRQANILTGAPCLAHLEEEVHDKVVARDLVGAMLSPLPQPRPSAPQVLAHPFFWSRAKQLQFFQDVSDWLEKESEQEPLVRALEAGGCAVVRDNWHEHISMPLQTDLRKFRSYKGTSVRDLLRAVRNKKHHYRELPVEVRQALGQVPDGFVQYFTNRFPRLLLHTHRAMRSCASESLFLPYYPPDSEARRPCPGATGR
T2 sequence (O75460 19-977): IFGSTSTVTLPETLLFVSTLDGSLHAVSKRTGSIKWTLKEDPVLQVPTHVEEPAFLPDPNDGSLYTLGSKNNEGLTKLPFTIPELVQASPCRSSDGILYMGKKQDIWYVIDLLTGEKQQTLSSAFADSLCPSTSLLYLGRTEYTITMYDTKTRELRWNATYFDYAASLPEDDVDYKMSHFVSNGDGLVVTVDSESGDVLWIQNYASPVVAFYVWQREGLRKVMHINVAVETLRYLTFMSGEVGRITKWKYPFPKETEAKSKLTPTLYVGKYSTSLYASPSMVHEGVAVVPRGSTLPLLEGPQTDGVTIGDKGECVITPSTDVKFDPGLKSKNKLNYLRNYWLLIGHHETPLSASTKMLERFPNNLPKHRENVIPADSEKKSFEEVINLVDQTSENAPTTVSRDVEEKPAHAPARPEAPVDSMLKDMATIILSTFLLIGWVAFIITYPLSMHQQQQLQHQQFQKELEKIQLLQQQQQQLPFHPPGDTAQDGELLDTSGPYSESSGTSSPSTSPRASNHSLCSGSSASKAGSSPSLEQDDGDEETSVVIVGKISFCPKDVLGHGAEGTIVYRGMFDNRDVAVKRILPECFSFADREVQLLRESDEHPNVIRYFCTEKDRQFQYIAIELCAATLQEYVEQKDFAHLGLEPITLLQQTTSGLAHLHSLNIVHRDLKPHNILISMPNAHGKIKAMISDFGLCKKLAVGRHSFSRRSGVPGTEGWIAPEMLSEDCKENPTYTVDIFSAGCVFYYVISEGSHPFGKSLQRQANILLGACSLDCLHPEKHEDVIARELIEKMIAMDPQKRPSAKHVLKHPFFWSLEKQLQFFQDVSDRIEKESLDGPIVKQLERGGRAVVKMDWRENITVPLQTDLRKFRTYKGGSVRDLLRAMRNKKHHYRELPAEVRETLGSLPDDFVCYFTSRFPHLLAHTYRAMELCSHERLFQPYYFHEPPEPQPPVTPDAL
T1 sequence (O75460 547-977): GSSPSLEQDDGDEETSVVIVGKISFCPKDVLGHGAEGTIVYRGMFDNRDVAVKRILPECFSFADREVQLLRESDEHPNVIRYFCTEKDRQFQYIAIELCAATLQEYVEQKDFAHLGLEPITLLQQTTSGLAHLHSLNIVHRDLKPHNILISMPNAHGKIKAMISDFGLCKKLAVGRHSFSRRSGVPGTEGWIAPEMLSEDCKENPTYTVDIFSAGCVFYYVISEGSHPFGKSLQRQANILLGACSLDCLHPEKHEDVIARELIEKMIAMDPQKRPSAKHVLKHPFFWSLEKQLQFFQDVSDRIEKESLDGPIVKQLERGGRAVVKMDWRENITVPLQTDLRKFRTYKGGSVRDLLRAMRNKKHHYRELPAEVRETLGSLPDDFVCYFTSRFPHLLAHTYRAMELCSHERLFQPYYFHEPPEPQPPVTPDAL
Sequence of BMPR2 (Q13873 27-1038): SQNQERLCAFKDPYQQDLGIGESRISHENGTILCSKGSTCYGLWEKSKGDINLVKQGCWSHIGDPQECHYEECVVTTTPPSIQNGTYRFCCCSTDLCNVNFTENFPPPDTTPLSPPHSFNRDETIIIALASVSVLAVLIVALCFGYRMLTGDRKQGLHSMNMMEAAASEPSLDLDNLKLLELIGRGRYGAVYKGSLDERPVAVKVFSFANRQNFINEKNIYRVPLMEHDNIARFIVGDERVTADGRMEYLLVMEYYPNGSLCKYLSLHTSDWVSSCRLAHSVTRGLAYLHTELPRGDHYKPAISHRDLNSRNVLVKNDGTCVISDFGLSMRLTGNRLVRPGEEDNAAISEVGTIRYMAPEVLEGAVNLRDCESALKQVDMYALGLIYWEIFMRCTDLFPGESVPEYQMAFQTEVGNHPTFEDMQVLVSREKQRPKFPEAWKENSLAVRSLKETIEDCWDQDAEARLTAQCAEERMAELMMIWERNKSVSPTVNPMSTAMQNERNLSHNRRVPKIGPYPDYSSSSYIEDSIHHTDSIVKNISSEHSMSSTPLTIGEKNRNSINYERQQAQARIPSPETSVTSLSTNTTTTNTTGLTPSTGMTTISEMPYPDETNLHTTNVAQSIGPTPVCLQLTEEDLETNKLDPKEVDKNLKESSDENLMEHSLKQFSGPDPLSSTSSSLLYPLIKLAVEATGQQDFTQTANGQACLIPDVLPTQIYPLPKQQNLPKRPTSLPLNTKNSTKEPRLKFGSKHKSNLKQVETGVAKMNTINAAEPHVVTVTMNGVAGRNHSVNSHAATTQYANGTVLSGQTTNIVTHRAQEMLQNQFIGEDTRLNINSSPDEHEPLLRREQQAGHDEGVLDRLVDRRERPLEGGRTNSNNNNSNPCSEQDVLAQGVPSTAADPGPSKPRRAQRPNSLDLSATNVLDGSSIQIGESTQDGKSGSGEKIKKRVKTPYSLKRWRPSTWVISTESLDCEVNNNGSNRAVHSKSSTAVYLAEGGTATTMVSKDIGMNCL
Sequence of CASK (O14936 whole entry): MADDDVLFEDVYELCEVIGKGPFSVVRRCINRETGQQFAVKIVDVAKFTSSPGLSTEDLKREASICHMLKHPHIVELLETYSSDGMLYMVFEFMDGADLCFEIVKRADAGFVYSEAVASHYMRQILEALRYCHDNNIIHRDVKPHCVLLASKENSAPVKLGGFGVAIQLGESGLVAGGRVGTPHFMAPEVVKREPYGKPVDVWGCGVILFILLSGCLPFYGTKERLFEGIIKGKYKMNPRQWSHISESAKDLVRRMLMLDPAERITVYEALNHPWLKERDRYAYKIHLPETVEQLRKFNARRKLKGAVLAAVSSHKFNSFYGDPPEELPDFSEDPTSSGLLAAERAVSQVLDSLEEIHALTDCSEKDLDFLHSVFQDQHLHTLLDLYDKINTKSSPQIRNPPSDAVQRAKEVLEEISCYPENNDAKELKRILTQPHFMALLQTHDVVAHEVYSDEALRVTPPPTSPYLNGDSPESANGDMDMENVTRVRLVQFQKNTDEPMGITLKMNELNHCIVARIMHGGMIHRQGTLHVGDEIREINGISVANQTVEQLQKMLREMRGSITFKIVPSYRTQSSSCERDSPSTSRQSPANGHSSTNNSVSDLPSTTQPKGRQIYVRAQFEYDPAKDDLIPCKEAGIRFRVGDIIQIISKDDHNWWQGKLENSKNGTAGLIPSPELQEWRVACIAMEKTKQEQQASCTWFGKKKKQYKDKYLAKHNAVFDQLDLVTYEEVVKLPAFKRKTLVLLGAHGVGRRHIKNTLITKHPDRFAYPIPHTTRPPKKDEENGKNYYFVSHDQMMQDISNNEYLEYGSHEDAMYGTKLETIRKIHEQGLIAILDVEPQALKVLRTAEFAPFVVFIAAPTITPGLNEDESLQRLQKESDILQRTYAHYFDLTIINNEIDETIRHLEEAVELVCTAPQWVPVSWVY

Row | SMILES | Kd (phosphorylated IRE1α) [nM] | inhibition at 5 µM (BMPR2) [%] | inhibition at 5 µM (CASK) [%] | IRE1β Kinase Displacement(%) (IRE1β (ERN2); 16700 μM as printed) | IC50 (IRE1β (ERN2); LanthaScreen Eu kinase binding assay, read-out: IRE1β (ERN2) kinase domain IC50) [nM] | selectivity for IRE1α over IRE1β (IRE1β (ERN2); kinase binding IC50s) [fold] | inhibition at 5 µM (IRE1β (ERN2); kinase profiling, ERN2, LanthaScreen Binding, IA107 at 5 μM) [%] | treatment concentration below which stabilizing effects are negligible (CETSA) (IRE1α in A549 cells; A549 cells) | thermal stabilization of cellular IRE1α, CETSA (IRE1α in A549 cells; A549 cells treated 4 h) | inhibition of ER stress-induced XBP1 mRNA splicing [1] | IC50 ([1]; Homo sapiens) [nM]
1 | Cc1c(CCC(=O)O)c2cc(Br)ccc2n1C(=O)c1ccccc1 [IA107] | 152 | -4 | -14 | 87.04% and 84.54% | 1440 | 2 | 70 | – | – | – | –
2 | CCOC(=O)CCc1c(C)n(C(=O)c2ccccc2)c2ccc(Br)cc12 [IAPD1] | – | – | – | – | – | – | – | lower than 2.22 μM | dose-dependently stabilized; also recorded: concentration-dependently stabilized; also recorded: concentration-dependently increased | inhibited | 220
